Values quoted from earlier work, collected in patent US6642275B2, “Formulation for respiratory tract administration” (Euro- Celtique, S.A., priority 1995, dated 2003).
Where two headings read alike, the source gives them in different places.

Key:
[1] = animal models, M1 vs tramadol
[2] = for plasma clearance rate: 100 mg IV dose
[3] = single oral dose, adjusted for body weight

Compound	potency in producing analgesia relative to tramadol [1]	potency in producing analgesia relative to tramadol ([1]; listed as mono-O-desmethyltramadol)	binding to opioid receptors (affinity, in words) (opioid receptors)	potency in opioid receptor binding relative to tramadol (opioid receptors; M1 vs tramadol)	plasma clearance rate ([2]; females)	plasma clearance rate ([2]; males)	higher area under the concentration-time curve in females compared to males [2, 3]	higher peak tramadol concentration in females compared to males [2, 3]
CN(C)C[C@H]1CCCC[C@]1(O)c1cccc(O)c1 [Formula M1, mono-O-desmethyltramadol]	up to 6 times	about 6 times	high affinity	200 times				
COc1cccc([C@@]2(O)CCCC[C@H]2CN(C)C)c1 (racemic) [tramadol, (±) trans-2-[(dimethylamino)methyl]-1-(3-methoxyphenyl) cyclohexanol]					5.7 mL/min/kg	6.4 mL/min/kg	35%	12%
